# From patent publication US20160045612A1, “FUNCTIONALIZED NANOPARTICLES FOR MEDICAL TREATMENTS” (UNIVERSITY OF MASSACHUSETTS, priority 2013, published 2016)
# Counter-ions that a name gives are not always drawn.
# Test system: engineered Str^r mutant E. coli ORN 208
# Assay: minimal inhibitory concentration (MIC) against streptomycin-resistant E. coli
# Format: cell-based, Escherichia coli
# Experimental: The diverse particle size affects inhibition and control. Silica nanoparticles were synthesized with an average of 80, 50 and 30 nm. Streptomycin was conjugated via photocoupling method through perfluorophenyl azide (PFPA) chemistry. The MIC for free streptomycin sulfate was recorded as a high 2.0 mg/mL for an engineered Str^r mutant E. coli ORN 208.
# It is reasonable to hypothesize that the more nanoparticles internalize into the bacteria the greater the effect of the antibiotic. […] The comparative difference of the streptomycin that can exert MIC is shown in FIG. 9 for the engineered Str^r mutant E. coli ORN 208 .
structure (smiles),measurement,setting,value
"[H]/N=C(/N)N[C@H]1[C@H](O)[C@@H](O)[C@H](O[C@@H]2O[C@@H](C)[C@](O)(C=O)[C@H]2O[C@@H]2O[C@@H](CO)[C@H](O)[C@@H](O)[C@@H]2NC)[C@@H](N/C(N)=N\[H])[C@@H]1O [free streptomycin sulfate, Streptomycin sulfate]",MIC,"Escherichia coli, read-out: minimum inhibitory concentration (MIC)",2000 µg/mL
same,minimum inhibitory concentration (MIC),"streptomycin resistant E. coli, MIC as streptomycin",2000 µg/mL
